Assay type in all cases: biochemical
Experiment [1] addresses T1, Cathepsin G (Homo sapiens, UniProt P08311).
T1 construct: purchased Elastin Products Company (EPC) SG-45
T1 sequence (P08311 21-255): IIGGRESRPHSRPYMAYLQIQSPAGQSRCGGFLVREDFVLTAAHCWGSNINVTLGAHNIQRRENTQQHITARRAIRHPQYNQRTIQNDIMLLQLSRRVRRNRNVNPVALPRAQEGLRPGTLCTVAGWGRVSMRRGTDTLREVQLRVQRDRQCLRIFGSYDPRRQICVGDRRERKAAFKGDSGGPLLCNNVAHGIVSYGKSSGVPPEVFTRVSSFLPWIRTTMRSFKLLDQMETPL
As to the kind of experiment: Cathepsin G assay (Suc-Ala-Ala-Pro-Phe-pNA, 410 nm). The conditions noted are these: for inhibition at 100 µM / Cathepsin G % inhibition: 100 μM peptide (Tables VI, VIII); for inhibition at 200 µM / Cathepsin G Inhibition: 200 μM peptide (head of Table IX). The gist of the method: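 Spectrophotometric rate assay in 0.1M Tris pH 7.5 at 25 °C: peptide inhibitor (200 μM HCl salt solution, final 10% DMSO where needed) and Suc-Ala-Ala-Pro-Phe-pNA substrate were equilibrated 5 min before adding enzyme. pNA release was followed at 410 nm for at least 3 min, rate averaged over 3 min.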

Experiment [2] deals with T2, Factor D (Homo sapiens, UniProt P00746).
T2 construct: prepared from pooled human plasma; from tissue; host or cells: pooled human plasma
As to the kind of experiment: Factor D assay by inhibition of fluid phase Factor B activation. The method, then:
Highly purified C3, C4, Factor D, Factor B, and C1s were prepared from pooled human plasma. Factors B and C4 were radiolabeled by periodate oxidation of sialic acid residues, followed by reduction with tritiated sodium borohydride. In a representative experiment, a solution of 1.2 mg of factor B in 1.8 ml of PBS was treated with 70 μl of 0.1M NaIO4. After 10 min incubation on ice, excess reagent was removed by filtration over "SEPHADEX®" which is a matrix for gel chromatography (1.0 cm×20 cm). To the protein pool was added 60 μl of NaB[^3 H]4 solution and incubated for 30 min on ice. Labeled protein was separated from excess reagent by desalting or dialysis. Human C4 was radiolabeled in the same manner. Radiolabeled proteins were stored at -70° C. in PBS. The specific radioactivity of ^3 H factor B was about 10,000 CPM/μg and that of ^3 H-C4 was 5,000 CPM/μg.
The effect of the peptides on Factor D-dependent cleavage of factor B was studied by incubating 3.5 μg of Factor B, 1.5 μg of C3(H2 O) and 0.2 μl of Factor D at 37° C. for 60 min in Mg-PBS containing different concentrations of inhibitor. Uncleaved Factor B and its fragments, Ba and Bb, were first separated by SDS-PAGE and analyzed as described above. The percent cleavage of the reaction was calculated as follows: [formula]
B=radioactivity (CPM) of uncleaved factor B
Bb=radioactivity (CPM) of fragment Bb
Ba=radioactivity (CPM) of fragment Ba
Electrophoresis was carried out under reducing conditions in the Laemmli system using slab gel of 8% polyacrylamide. The gels were stained and destained (Fairbanks et al. Biochemistry (1971) 10:2606).
The percent inhibition of the reaction was calculated according to the following relationship: [formula]
A: % cleavage without inhibitor
B: % cleavage with inhibitor
The concentration inducing 50% inhibition was obtained by plotting the percent inhibition on a probability graph (National Blank Book Co., No. 12-083) on the ordinate and the log of the inhibitor concentration on the abscissa. From this graph, a 50% inhibition concentration IC50 was obtained and this value was employed to express the activity.

Experiment [3] deals with T3, HUMAN SPUTUM ELASTASE (Homo sapiens, UniProt P08246).
T3 construct: HUMAN SPUTUM ELASTASE; purchased Elastin Products Company SE563; host or cells: human sputum (from the product name)
T3 sequence (P08246 30-267): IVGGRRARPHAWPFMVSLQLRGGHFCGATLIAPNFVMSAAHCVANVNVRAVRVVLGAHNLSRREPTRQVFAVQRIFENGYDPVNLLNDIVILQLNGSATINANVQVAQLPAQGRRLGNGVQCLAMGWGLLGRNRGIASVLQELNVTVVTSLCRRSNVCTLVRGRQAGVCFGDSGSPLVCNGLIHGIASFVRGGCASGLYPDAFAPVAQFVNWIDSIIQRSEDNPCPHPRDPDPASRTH
The experiment can be described thus: Elastase assay (MeO-Suc-Ala-Pro-Val-pNA). The conditions noted are these: 200 μM peptide. The method, then: Enzyme used is "HUMAN SPUTUM ELASTASE®" which is an enzyme which is the target protease for α1 antitrypsin from Elastin Products Company, Catalog No. SE563, lot 85071, 875 units/mg as determined by supplier with N-Suc-Ala-Ala-Ala-pNA; prepared at 0.2 mg/mL in 0.1M Tris·HCl, pH 8.8 at 37 degrees C. An amount of enzyme is used to give approximately 0.1 change in Absorbance/min; which in this assay was 1 μg.
The substrate is MeO-Suc-Ala-Pro-Val-pNA, Sigma Catalog No. M-4765. About 50 mg of the substrate is dissolved in 1 ml of 1-methyl-2-pyrrolidinone and diluted to 33 mls. with 0.1M Tris-HCl, pH 7.5, containing 0.5M NaCl, and 0.01 wt % sodium azide.
Peptide solutions are prepared at 500 μM, using 1.5% of the final volume of DMSO first and diluting with distilled water (DW) or 0.1M Tris.HCl, pH 8.8 at 37 degrees C. [formula]

[4] abbreviates: Table X, μM concentration at which protease was inhibited 50%, read-out: IC50 D.
Setting [5] is: Tables VI and VIII, % 50, read-out: Factor D, μM concentration listed for 50 % inhibition.

Where two headings read alike, the source gives them in different places. Ends that are not written are not given here.

T2 sequence (P00746 26-253): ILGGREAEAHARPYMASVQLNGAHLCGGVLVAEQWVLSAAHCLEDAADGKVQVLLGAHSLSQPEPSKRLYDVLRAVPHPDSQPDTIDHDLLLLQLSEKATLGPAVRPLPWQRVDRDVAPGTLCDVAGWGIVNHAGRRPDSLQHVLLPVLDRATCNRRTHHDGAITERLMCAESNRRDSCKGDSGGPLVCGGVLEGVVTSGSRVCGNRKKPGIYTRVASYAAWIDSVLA

For `CC[C@H](C)[C@H](NC(=O)[C@H](CC(C)C)NC(=O)[C@H](Cc1ccccc1)NC(=O)[C@@H](NC(=O)[C@H](Cc1ccccc1)NC(=O)[C@@H]1CCCN1C(=O)[C@H](CCCCN)NC(=O)[C@H](CC(N)=O)NC(=O)[C@H](Cc1ccccc1)NC(=O)[C@H](CCCCN)NC(=O)[C@@H](NC(=O)[C@H](CCC(=O)O)NC(=O)[C@@H]1CCCN1C(=O)[C@@H]1CCCN1)C(C)C)C(C)C)C(=O)O` [Peptide 1], testing at 100 µM in experiment [1] gave an inhibition of 0%. Also, the inhibition at 200 µM in experiment [1], in experiment [2] (200 μM peptide) and in experiment [3] was 0% throughout. Also, the “Elastase Inhibition” value in experiment [3] was “no inhibitory activity”.
For the compound “AGRSLNPNRVTFKANRPFLVFIREVPLNTIIFLGRVANP [Peptide 27]”, the inhibition at 200 µM in experiment [1] came to 52%; in experiment [3] it was 0%. Further, the IC50 in experiment [2] (setting [4]) was less than 25 µM.
In experiment [1], IVRFNRPFLLII [Peptide 3] showed an inhibition at 100 µM of 32% and an inhibition at 200 µM of 32%. Further, in experiment [2] (setting [5]), the IC50 came to 111 µM. In addition, in experiment [3], the inhibition at 200 µM turned out to be 0%.
Turning to “IVRFNRPFLLIIVPTDTQNIFFLSKVTNPSKPR [Peptide 22]”, in experiment [1], the “Cathepsin G % inhibition” value is 46% and the “Cathepsin G Inhibition” value worked out at 46%. Moreover, in experiment [2] (setting [5]), the IC50 came out at 4 µM. Besides, the “Elastase Inhibition” value in experiment [3] turned out to be 0%.
Take PNRVTFKANRPFLVFI [Peptide 2]: in experiment [1], the inhibition at 100 µM stood at 13% and the inhibition at 200 µM was found to be 13%. In addition, in experiment [2] (setting [5]), the IC50 came to 53 µM. This compound also showed an inhibition at 200 µM in experiment [3] of 0%.
As to “RVTFKANRPFLVFIREVPLNTIIFLGRVANP [Peptide 21]”, in experiment [1], the inhibition at 100 µM was 38%. Moreover, the inhibition at 200 µM in experiment [1] came to 38%; in experiment [3] it was 0%. Besides, the IC50 in experiment [2] (setting [4]) and in experiment [2] (setting [5]) was less than 8 µM throughout.
With “VKFNKPFVFLLIEQNTKSPLFLGKVVNPTQK [Peptide 20]”, in experiment [1], the “Cathepsin G % inhibition” value is recorded as 0% and the “Cathepsin G Inhibition” value was 0%. Moreover, the IC50 in experiment [2] (setting [5]) was determined as 16 µM. In addition, in experiment [3], the “Elastase Inhibition” value turned out to be 0%.

For the origin of these results see patent publication US5157019A, “Serine protease inhibitors” (Monsanto Company, priority 1991, dated 1992).
